The nature of data set [1]: H+/Na+ transport assay of bead-derived peptides (one-point).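 Further: relative to parent gramicidin A activity set to 1.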 The format is biochemical. Further details: key: relative activity; mean of two control wells = 1.00. The following applies: bead-derived peptide solution, EYPC/EYPG LUVs. The essentials: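 H+/Na+ transport is monitored through pyranine fluorescence in freshly extruded LUVs after a 30-min room-temperature vortex with each library peptide at a single concentration. Signals are normalized to detergent (Triton X-100) and untreated controls.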

Data set [2] concerns P388 mouse leukemia cells. The following applies: 92 h. The essentials:
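Peptide stocks diluted 250× in growth medium; P388 cells 1 × 10^4 cells/mL final; 37 °C, 5% CO2, 92 h. WST-1 + 1-methoxy PMS, 4 h, A415. Output: % viability.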

The subject of data set [3] is Streptococcus pyogenes SSI-9. Briefly: Antibacterial activity assay of bead-derived peptides (three concentrations). On the set-up: key: +++: inhibition by the 640-fold diluted peptide solution; ++: inhibition by the 160-fold diluted solution; +: inhibition by the 40-fold diluted solution; -: no inhibition. The following applies: S. pyogenes, bead-derived peptide solution, three concentrations. Type of data set: cell-based. Put shortly: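 First, each peptide stock was diluted 4- and 16-fold in DMSO; next, the three solutions were mixed with S. pyogenes SSI-9 suspension (2 × 10^5 CFU) in cation-adjusted Mueller Hinton Broth plus 5% laked horse blood; finally, plates stood 18 h at 37 °C before checking for grown-cell precipitation.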

The structures appear in SMILES notation. Where a SMILES comes first, the peptide text is derived from it. [ ]: non-standard residue; d: D form. The star is where a group is joined. NHCH2CH2OH = OCCN*; For = O=C*

Take `CC(C)C[C@@H](NC(=O)[C@H](C)NC(=O)CNC(=O)[C@@H](NC=O)C(C)C)C(=O)N[C@@H](C)C(=O)N[C@H](CC(C)C)C(=O)N[C@H](C(=O)N[C@H](CC(C)C)C(=O)N[C@@H](Cc1c[nH]c2ccccc12)C(=O)N[C@@H](C(=O)N[C@@H](Cc1c[nH]c2ccccc12)C(=O)N[C@@H](C(=O)N[C@@H](Cc1c[nH]c2ccccc12)C(=O)N[C@@H](C(=O)N[C@@H](Cc1c[nH]c2ccccc12)C(=O)NCCO)C(C)C)C(C)C)C(C)C)C(C)C` [compound 11323] (For-VGA[dL]A[dL]V[dL]W[dV]W[dV]W[dV]W-NHCH2CH2OH): the “H+/Na+ transport activity normalized against the value of 1 (1.00)” value (“H+/Na+ transport activity normalized” below) in data set [1] was determined as 1.02. The molecule further registered a cell viability/% in data set [2] of 5.2%. Further, the antibacterial activity entry in data set [3] was “-”.
Turning to `CC(C)C[C@@H](NC(=O)[C@H](C)NC(=O)CNC(=O)[C@@H](NC=O)C(C)C)C(=O)N[C@@H](C)C(=O)N[C@@H](C(=O)N[C@H](C(=O)N[C@H](CC(C)C)C(=O)N[C@@H](Cc1c[nH]c2ccccc12)C(=O)N[C@@H](C(=O)N[C@@H](Cc1c[nH]c2ccccc12)C(=O)N[C@H](CC(C)C)C(=O)N[C@@H](Cc1c[nH]c2ccccc12)C(=O)N[C@@H](C(=O)N[C@@H](Cc1c[nH]c2ccccc12)C(=O)NCCO)[C@H](C)O)C(C)C)C(C)C)C(C)C` [compound 8906] (For-VGA[dL]A[dV]V[dL]W[dV]W[dL]W[dT]W-NHCH2CH2OH), the “H+/Na+ transport activity normalized” value in data set [1] stood at 1.08. Besides, in data set [2], the cell viability/% is listed as 79.1%. In addition, the antibacterial activity result in data set [3] is “+”.
On to `CC(C)C[C@@H](NC(=O)[C@H](C)NC(=O)[C@H](NC(=O)[C@H](C)NC(=O)CNC(=O)[C@@H](NC=O)C(C)C)C(C)C)C(=O)N[C@H](C(=O)N[C@@H](C(=O)N[C@@H](Cc1c[nH]c2ccccc12)C(=O)N[C@@H](C(=O)N[C@@H](Cc1c[nH]c2ccccc12)C(=O)N[C@@H](C(=O)N[C@@H](Cc1c[nH]c2ccccc12)C(=O)N[C@@H](C(=O)N[C@@H](Cc1c[nH]c2ccccc12)C(=O)NCCO)C(C)C)C(C)C)C(C)C)[C@H](C)O)C(C)C` [compound 12283] (For-VGA[dV]A[dL]V[dT]W[dV]W[dV]W[dV]W-NHCH2CH2OH), for which the “H+/Na+ transport activity normalized” value in data set [1] was found to be 1.08. Further, the cell viability/% in data set [2] is 100.0%. The antibacterial activity result in data set [3] is “-”.
In the case of `CC(C)C[C@@H](NC(=O)[C@@H](NC(=O)[C@H](NC(=O)[C@H](C)NC(=O)[C@H](NC(=O)[C@H](C)NC(=O)CNC(=O)[C@@H](NC=O)C(C)C)[C@H](C)O)C(C)C)C(C)C)C(=O)N[C@@H](Cc1c[nH]c2ccccc12)C(=O)N[C@@H](C(=O)N[C@@H](Cc1c[nH]c2ccccc12)C(=O)N[C@@H](C(=O)N[C@@H](Cc1c[nH]c2ccccc12)C(=O)N[C@@H](C(=O)N[C@@H](Cc1c[nH]c2ccccc12)C(=O)NCCO)C(C)C)C(C)C)C(C)C` [compound 5623] (For-VGA[dT]A[dV]V[dL]W[dV]W[dV]W[dV]W-NHCH2CH2OH), in data set [1], the “H+/Na+ transport activity normalized” value was found to be 1.11. The cell viability/% in data set [2] is listed as 80.0%. The antibacterial activity entry in data set [3] is “-”.
As for `CNC(=O)C[C@@H](NC(=O)[C@@H](NC(=O)[C@@H](CC(C)C)NC(=O)[C@H](C)NC(=O)[C@@H](CC(C)C)NC(=O)[C@H](C)NC(=O)CNC(=O)[C@@H](NC=O)C(C)C)C(C)C)C(=O)N[C@@H](Cc1c[nH]c2ccccc12)C(=O)N[C@@H](C(=O)N[C@@H](Cc1c[nH]c2ccccc12)C(=O)N[C@@H](C(=O)N[C@@H](Cc1c[nH]c2ccccc12)C(=O)N[C@H](CC(C)C)C(=O)N[C@@H](Cc1c[nH]c2ccccc12)C(=O)NCCO)C(C)C)C(C)C` [compound 2951] (For-VGA[dL]A[dL]V[dD](NHMe)W[dV]W[dV]W[dL]W-NHCH2CH2OH), in data set [1], the “H+/Na+ transport activity normalized” value is recorded as 1.10. In data set [2], this molecule had a cell viability/% of 93.1%. Also, in data set [3], the antibacterial activity result was “-”.
As to `CC(C)C[C@@H](NC(=O)[C@H](Cc1c[nH]c2ccccc12)NC(=O)[C@@H](CC(C)C)NC(=O)[C@H](Cc1c[nH]c2ccccc12)NC(=O)[C@H](NC(=O)[C@H](Cc1c[nH]c2ccccc12)NC(=O)[C@@H](CC(C)C)NC(=O)[C@@H](NC(=O)[C@H](NC(=O)[C@H](C)NC(=O)[C@H](NC(=O)[C@H](C)NC(=O)CNC(=O)[C@@H](NC=O)C(C)C)C(C)C)C(C)C)C(C)C)C(C)C)C(=O)N[C@@H](Cc1c[nH]c2ccccc12)C(=O)NCCO` [compound 12538] (For-VGA[dV]A[dV]V[dL]W[dV]W[dL]W[dL]W-NHCH2CH2OH), in data set [1], the “H+/Na+ transport activity normalized” value was found to be 1.01. In data set [2], this molecule returned a cell viability/% of 2.1%. The antibacterial activity result in data set [3] is given as “-”.
With `CC(C)C[C@@H](NC(=O)[C@H](Cc1c[nH]c2ccccc12)NC(=O)[C@H](NC(=O)[C@H](Cc1c[nH]c2ccccc12)NC(=O)[C@H](NC(=O)[C@H](Cc1c[nH]c2ccccc12)NC(=O)[C@H](NC(=O)[C@@H](NC(=O)[C@H](NC(=O)[C@H](C)NC(=O)[C@H](NC(=O)[C@H](C)NC(=O)CNC(=O)[C@@H](NC=O)C(C)C)C(C)C)[C@H](C)O)C(C)C)C(C)C)C(C)C)C(C)C)C(=O)N[C@@H](Cc1c[nH]c2ccccc12)C(=O)NCCO` [compound 13062] (For-VGA[dV]A[dT]V[dV]W[dV]W[dV]W[dL]W-NHCH2CH2OH), in data set [1], the “H+/Na+ transport activity normalized” value was 1.06. Further, the cell viability/% in data set [2] is recorded as 92.8%. In data set [3], the antibacterial activity entry is on record as “-”.
In the case of `CC(C)C[C@@H](NC(=O)[C@H](C)NC(=O)[C@H](NC(=O)[C@H](C)NC(=O)CNC(=O)[C@@H](NC=O)C(C)C)C(C)C)C(=O)N[C@H](C(=O)N[C@@H](C(=O)N[C@@H](Cc1c[nH]c2ccccc12)C(=O)N[C@@H](C(=O)N[C@@H](Cc1c[nH]c2ccccc12)C(=O)N[C@H](CC(C)C)C(=O)N[C@@H](Cc1c[nH]c2ccccc12)C(=O)N[C@H](CC(C)C)C(=O)N[C@@H](Cc1c[nH]c2ccccc12)C(=O)NCCO)C(C)C)C(C)C)C(C)C` [compound 7169] (For-VGA[dV]A[dL]V[dV]W[dV]W[dL]W[dL]W-NHCH2CH2OH), in data set [1], the “H+/Na+ transport activity normalized” value is listed as 1.15. The molecule further returned a cell viability/% in data set [2] of 90.3%. Besides, the antibacterial activity result in data set [3] was “+”.
Regarding `CC(C)C[C@@H](NC(=O)[C@H](C)NC(=O)CNC(=O)[C@@H](NC=O)C(C)C)C(=O)N[C@@H](C)C(=O)N[C@@H](C(=O)N[C@H](C(=O)N[C@@H](C(=O)N[C@@H](Cc1c[nH]c2ccccc12)C(=O)N[C@H](CC(C)C)C(=O)N[C@@H](Cc1c[nH]c2ccccc12)C(=O)N[C@H](CC(C)C)C(=O)N[C@@H](Cc1c[nH]c2ccccc12)C(=O)N[C@@H](C(=O)N[C@@H](Cc1c[nH]c2ccccc12)C(=O)NCCO)C(C)C)[C@H](C)O)C(C)C)C(C)C` [compound 6702] (For-VGA[dL]A[dV]V[dT]W[dL]W[dL]W[dV]W-NHCH2CH2OH), the “H+/Na+ transport activity normalized” value in data set [1] turned out to be 1.03. Besides, in data set [2], the cell viability/% is 100.0%. The antibacterial activity result in data set [3] is “+”.
For the molecule `CC(C)[C@H](NC=O)C(=O)NCC(=O)N[C@@H](C)C(=O)N[C@@H](C(=O)N[C@@H](C)C(=O)N[C@@H](C(=O)N[C@H](C(=O)N[C@@H](C(=O)N[C@@H](Cc1c[nH]c2ccccc12)C(=O)N[C@@H](C(=O)N[C@@H](Cc1c[nH]c2ccccc12)C(=O)N[C@@H](C(=O)N[C@@H](Cc1c[nH]c2ccccc12)C(=O)N[C@@H](C(=O)N[C@@H](Cc1c[nH]c2ccccc12)C(=O)NCCO)C(C)C)C(C)C)C(C)C)C(C)C)C(C)C)C(C)C)C(C)C` [compound 10276] (For-VGA[dV]A[dV]V[dV]W[dV]W[dV]W[dV]W-NHCH2CH2OH), in data set [1], the “H+/Na+ transport activity normalized” value is on record as 1.04. Besides, the cell viability/% in data set [2] amounted to 100.0%. In addition, the antibacterial activity result in data set [3] is “+”.

The record behind these values is publication PMC7531004, “Discovery of gramicidin A analogues with altered activities by multidimensional screening of a one-bead-one-compound library” (Nature Communications, 2020).
